Data published in ChEMBL document CHEMBL1268952, “Design, synthesis, and evaluation of indolinones as inhibitors of the transforming growth factor β receptor I (TGFβRI)” (J Med Chem, 2010).

Legend:
[1] = molecular target: Mitogen-activated protein kinase 8 (Homo sapiens) (UniProt P45983); experiment: Inhibition of SAPK1c at 2 uM
[2] = molecular target: T1, Serine/threonine-protein kinase Sgk1 (Homo sapiens) (UniProt O00141); experiment: Inhibition of SGK at 1 uM; values are per cent of control
T1 sequence (whole entry): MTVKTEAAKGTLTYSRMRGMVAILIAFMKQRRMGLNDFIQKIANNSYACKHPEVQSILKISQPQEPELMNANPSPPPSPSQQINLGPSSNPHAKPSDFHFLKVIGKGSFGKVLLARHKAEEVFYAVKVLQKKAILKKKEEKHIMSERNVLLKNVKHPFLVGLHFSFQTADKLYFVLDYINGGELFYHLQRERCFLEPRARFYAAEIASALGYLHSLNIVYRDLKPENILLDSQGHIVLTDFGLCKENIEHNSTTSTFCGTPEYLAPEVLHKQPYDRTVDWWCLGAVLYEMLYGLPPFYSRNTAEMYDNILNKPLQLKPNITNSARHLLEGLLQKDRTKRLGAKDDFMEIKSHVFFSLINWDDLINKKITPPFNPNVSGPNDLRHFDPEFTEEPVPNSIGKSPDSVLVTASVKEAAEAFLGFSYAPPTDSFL

[3] = molecular target: Tyrosine-protein kinase CSK (Homo sapiens) (UniProt P41240); experiment: Inhibition of CSK at 1 uM; values are per cent of control
Sequence of Tyrosine-protein kinase CSK (Homo sapiens) (P41240 2-450 limits assumed): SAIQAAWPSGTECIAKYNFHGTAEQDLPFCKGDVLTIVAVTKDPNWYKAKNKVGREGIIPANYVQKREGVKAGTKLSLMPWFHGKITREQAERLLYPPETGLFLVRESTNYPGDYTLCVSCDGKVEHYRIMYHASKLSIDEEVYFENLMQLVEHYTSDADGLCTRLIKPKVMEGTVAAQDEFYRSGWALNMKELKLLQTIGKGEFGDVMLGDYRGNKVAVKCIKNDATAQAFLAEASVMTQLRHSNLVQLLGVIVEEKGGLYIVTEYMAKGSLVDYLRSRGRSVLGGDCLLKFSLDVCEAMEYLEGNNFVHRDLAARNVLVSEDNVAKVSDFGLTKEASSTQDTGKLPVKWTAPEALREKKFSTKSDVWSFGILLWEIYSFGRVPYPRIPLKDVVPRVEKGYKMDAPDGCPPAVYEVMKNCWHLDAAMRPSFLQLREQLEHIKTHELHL

[4] = molecular target: Ribosomal protein S6 kinase beta-1 (Homo sapiens) (UniProt P23443); experiment: Inhibition of S6K1 at 1 uM; values are per cent of control
Sequence of Ribosomal protein S6 kinase beta-1 (Homo sapiens) (P23443 whole entry, looked up): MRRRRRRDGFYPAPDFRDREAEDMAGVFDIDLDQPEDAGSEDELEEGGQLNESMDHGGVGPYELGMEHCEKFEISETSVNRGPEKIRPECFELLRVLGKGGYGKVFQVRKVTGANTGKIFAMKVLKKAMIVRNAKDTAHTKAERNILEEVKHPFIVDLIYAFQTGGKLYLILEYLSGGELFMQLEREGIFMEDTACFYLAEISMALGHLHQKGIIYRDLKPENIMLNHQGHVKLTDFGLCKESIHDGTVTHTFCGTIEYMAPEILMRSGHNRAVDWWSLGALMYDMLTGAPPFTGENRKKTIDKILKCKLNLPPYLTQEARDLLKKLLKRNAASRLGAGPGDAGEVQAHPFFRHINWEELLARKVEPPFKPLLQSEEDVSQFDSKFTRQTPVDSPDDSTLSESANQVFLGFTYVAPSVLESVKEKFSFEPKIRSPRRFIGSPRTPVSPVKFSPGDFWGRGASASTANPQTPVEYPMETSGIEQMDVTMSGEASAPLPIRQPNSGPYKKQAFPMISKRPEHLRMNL

[5] = molecular target: Serine/threonine-protein kinase Nek6 (Homo sapiens) (UniProt Q9HC98); experiment: Inhibition of NEK6 at 1 uM; values are per cent of control
Sequence of Serine/threonine-protein kinase Nek6 (Homo sapiens) (Q9HC98 whole entry): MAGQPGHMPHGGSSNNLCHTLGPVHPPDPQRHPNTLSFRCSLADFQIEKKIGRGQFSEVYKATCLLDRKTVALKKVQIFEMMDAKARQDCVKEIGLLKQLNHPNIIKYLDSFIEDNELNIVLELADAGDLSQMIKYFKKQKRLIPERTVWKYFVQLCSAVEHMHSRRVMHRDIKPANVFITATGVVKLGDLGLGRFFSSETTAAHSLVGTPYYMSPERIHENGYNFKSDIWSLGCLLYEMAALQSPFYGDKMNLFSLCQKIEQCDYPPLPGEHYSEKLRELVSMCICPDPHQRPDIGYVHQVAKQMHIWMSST

[6] = molecular target: Ribosomal protein S6 kinase alpha-5 (Homo sapiens) (UniProt O75582); experiment: Inhibition of MSK1 at 1 uM; values are per cent of control
Sequence of Ribosomal protein S6 kinase alpha-5 (Homo sapiens) (O75582 whole entry, looked up): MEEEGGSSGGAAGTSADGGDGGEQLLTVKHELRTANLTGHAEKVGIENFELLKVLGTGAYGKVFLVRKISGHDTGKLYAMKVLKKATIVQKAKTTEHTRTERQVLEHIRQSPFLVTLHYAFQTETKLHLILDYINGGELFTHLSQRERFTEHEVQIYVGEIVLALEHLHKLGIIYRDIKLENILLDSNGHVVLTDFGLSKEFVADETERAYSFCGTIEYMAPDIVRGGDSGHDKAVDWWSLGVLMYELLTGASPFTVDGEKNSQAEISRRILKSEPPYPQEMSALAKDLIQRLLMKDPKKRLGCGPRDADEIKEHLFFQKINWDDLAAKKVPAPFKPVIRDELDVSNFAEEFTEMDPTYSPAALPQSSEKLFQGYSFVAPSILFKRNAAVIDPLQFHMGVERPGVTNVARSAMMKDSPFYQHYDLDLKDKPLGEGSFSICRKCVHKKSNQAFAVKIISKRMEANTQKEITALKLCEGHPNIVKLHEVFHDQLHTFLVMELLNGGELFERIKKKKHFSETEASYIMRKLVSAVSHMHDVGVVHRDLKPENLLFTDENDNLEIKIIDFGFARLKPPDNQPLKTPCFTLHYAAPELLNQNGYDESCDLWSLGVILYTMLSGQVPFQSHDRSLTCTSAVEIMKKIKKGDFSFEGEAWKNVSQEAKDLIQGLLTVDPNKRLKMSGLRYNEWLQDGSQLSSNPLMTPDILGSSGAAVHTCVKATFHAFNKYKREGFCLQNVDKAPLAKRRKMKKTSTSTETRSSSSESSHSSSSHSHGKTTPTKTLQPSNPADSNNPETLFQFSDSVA

[7] = molecular target: Mitogen-activated protein kinase 1 (Homo sapiens) (UniProt P28482); experiment: Inhibition of ERK2 at 1 uM; values are per cent of control
Sequence of Mitogen-activated protein kinase 1 (Homo sapiens) (P28482 whole entry): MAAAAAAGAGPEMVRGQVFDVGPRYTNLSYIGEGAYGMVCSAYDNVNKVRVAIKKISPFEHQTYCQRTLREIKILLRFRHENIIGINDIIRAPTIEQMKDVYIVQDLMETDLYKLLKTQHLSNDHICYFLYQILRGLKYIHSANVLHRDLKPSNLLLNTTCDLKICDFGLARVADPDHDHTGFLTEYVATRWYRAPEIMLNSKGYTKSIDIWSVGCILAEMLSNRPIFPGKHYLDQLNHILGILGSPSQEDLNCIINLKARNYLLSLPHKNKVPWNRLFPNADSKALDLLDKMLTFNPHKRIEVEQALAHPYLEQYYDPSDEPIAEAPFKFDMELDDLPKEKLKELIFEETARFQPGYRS

[8] = molecular target: T2, Serine/threonine-protein kinase Chk1 (Homo sapiens) (UniProt O14757); experiment: Inhibition of CHK1 at 1 uM; values are per cent of control
T2 sequence (whole entry): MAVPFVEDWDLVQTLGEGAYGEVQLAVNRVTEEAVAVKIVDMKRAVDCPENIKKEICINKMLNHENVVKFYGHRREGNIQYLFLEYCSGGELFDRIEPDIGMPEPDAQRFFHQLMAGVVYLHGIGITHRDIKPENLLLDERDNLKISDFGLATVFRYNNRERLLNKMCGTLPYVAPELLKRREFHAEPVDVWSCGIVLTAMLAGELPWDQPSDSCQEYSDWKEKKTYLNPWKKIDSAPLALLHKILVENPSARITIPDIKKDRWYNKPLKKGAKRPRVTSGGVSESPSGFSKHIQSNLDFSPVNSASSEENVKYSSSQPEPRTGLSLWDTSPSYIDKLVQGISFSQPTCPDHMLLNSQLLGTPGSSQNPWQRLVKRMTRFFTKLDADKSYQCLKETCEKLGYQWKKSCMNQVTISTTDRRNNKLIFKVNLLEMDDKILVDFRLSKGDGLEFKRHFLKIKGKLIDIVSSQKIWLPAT

[9] = Inhibition of AMPK at 1 uM; values are per cent of control
[10] = molecular target: Rho-associated protein kinase 2 (Homo sapiens) (UniProt O75116); experiment: Inhibition of ROCK2 at 1 uM; values are per cent of control
Sequence of Rho-associated protein kinase 2 (Homo sapiens) (O75116 whole entry, looked up): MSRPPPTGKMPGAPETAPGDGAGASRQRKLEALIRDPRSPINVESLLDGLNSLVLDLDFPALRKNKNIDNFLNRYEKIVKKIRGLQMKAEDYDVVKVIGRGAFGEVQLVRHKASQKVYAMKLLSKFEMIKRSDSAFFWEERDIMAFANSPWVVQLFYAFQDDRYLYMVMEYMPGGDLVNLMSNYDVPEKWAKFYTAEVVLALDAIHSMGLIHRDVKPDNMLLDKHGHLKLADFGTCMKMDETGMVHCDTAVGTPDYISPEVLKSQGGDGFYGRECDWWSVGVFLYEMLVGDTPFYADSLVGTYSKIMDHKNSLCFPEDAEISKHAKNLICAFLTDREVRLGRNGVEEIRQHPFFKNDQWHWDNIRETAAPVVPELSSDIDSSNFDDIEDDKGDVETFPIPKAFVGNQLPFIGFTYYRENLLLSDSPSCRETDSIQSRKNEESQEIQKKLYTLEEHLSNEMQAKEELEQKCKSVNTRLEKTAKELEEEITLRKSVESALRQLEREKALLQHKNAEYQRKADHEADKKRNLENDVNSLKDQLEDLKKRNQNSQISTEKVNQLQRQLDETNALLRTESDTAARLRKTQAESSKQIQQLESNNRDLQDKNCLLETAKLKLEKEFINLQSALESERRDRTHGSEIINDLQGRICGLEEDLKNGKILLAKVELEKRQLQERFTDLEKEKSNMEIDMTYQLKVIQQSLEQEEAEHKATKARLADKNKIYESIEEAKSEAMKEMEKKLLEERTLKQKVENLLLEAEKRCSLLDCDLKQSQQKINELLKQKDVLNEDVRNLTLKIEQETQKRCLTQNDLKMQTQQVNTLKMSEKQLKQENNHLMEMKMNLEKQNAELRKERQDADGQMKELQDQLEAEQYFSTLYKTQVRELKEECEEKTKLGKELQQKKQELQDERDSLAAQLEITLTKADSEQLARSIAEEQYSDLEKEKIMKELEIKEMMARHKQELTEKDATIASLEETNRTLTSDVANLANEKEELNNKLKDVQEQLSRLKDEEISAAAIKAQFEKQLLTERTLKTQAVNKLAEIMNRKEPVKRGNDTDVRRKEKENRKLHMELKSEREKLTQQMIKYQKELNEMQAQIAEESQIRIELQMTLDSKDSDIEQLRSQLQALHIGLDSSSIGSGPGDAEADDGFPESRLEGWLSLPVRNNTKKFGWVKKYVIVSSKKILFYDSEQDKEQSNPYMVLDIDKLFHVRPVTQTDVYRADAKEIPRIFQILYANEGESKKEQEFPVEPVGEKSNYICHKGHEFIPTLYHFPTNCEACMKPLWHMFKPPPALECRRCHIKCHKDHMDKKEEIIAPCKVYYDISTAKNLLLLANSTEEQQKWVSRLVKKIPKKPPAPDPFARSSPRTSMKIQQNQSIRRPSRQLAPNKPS

[11] = molecular target: T3, Serine/threonine-protein kinase Nek2 (Homo sapiens) (UniProt P51955); experiment: Inhibition of NEK2A at 1 uM; values are per cent of control
T3 sequence (whole entry): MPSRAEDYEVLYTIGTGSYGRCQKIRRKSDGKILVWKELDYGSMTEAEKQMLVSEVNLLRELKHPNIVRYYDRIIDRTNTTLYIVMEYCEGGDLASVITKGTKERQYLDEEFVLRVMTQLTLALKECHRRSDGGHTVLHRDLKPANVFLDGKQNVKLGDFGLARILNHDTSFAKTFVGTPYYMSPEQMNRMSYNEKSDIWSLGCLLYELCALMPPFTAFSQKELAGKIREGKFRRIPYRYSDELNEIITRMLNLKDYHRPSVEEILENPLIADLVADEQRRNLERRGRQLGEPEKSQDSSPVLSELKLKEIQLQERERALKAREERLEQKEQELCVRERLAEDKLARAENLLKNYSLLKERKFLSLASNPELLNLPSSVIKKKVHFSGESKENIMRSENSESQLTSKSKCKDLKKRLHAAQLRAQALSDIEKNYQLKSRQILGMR

[12] = molecular target: Dual specificity mitogen-activated protein kinase kinase 1 (Homo sapiens) (UniProt Q02750); experiment: Inhibition of MKK1A at 1 uM; values are per cent of control
Sequence of Dual specificity mitogen-activated protein kinase kinase 1 (Homo sapiens) (Q02750 whole entry): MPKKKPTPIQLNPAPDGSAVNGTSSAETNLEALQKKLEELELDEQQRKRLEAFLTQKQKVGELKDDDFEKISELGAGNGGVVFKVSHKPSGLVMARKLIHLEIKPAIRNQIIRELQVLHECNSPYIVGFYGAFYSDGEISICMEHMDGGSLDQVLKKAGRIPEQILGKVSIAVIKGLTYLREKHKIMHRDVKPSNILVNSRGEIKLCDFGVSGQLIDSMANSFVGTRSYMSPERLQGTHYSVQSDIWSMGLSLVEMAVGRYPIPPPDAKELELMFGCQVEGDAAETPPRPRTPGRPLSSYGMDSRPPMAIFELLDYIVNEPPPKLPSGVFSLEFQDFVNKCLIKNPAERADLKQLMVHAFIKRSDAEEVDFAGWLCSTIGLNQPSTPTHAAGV

[13] = molecular target: Dual specificity tyrosine-phosphorylation-regulated kinase 1A (Homo sapiens) (UniProt Q13627); experiment: Inhibition of DYRK1A at 1 uM; values are per cent of control
[14] = molecular target: Protein kinase C alpha type (Homo sapiens) (UniProt P17252); experiment: Inhibition of PKCalpha at 1 uM; values are per cent of control
[15] = molecular target: Mitogen-activated protein kinase 14 (Homo sapiens) (UniProt Q16539); experiment: Inhibition of p38alpha at 1 uM; values are per cent of control
Sequence of Mitogen-activated protein kinase 14 (Homo sapiens) (Q16539 whole entry): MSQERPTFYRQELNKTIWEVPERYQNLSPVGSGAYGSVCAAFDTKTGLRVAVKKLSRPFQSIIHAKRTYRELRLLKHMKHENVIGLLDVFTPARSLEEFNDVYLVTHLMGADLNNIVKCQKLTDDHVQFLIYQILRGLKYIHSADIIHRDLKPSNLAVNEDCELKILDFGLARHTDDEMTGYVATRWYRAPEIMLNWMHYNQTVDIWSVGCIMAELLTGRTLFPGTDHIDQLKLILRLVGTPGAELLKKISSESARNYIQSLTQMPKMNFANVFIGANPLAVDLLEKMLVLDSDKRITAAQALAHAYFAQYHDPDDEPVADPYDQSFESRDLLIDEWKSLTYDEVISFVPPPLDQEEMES

[16] = molecular target: Cyclin-dependent kinase 2/cyclin A (Homo sapiens) (UniProt P24941+P20248+P78396); experiment: Inhibition of CDK2/cyclin A at 1 uM; values are per cent of control

Sequence of Mitogen-activated protein kinase 8 (Homo sapiens) (P45983 whole entry): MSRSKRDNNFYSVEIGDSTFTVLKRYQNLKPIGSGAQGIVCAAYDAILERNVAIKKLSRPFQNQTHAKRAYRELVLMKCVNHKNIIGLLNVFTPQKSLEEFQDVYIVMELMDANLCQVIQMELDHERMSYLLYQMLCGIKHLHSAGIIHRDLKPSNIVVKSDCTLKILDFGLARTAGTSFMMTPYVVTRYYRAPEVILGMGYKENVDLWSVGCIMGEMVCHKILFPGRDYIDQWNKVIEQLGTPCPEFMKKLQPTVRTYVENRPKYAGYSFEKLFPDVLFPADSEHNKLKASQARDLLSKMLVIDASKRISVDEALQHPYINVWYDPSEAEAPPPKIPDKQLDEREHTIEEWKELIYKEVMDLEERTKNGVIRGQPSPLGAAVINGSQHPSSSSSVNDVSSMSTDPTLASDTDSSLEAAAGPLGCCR

Work on `CCNC(=O)c1ccc2c(c1)NC(=O)/C2=C(\Nc1ccc(CN(C)C)cc1)c1ccccc1` yielded a residual activity [1] of 99%, a residual activity [2] of 124% and a residual activity [3] of 96%. The residual activity [4] was 101%, the residual activity [5] was 123% and the residual activity [6] was 104%. For the same compound, the residual activity [7] was 98%, the residual activity [8] was 84% and the residual activity [9] was 85%. The residual activity [10] was 95%, the residual activity [11] was 98% and the residual activity [12] was 93%. It also gave a residual activity [13] of 105%, a residual activity [14] of 89% and a residual activity [15] of 121%. The residual activity [16] was 103%.
For `CCN(C)C(=O)c1ccc2c(c1)NC(=O)/C2=C(\Nc1ccc(CN2CCCCC2)cc1)c1ccccc1`, the residual activity [1] was 89%, the residual activity [2] was 123% and the residual activity [3] was 72%. It also gave a residual activity [4] of 96%, a residual activity [5] of 88% and a residual activity [6] of 92%. The residual activity [7] was 96%, the residual activity [8] was 74% and the residual activity [9] was 80%. It also gave a residual activity [10] of 88%, a residual activity [11] of 96% and a residual activity [12] of 47%. It also gave a residual activity [13] of 88%, a residual activity [14] of 88% and a residual activity [15] of 92%. The residual activity [16] was 110%.
With `CN(C)C(=O)c1ccc2c(c1)/C(=C(/Nc1ccc(CN3CCCCC3)cc1)c1ccccc1)C(=O)N2` the residual activity [1] was 90%, the residual activity [2] was 68% and the residual activity [3] was 74%. The residual activity [4] was 76%, the residual activity [5] was 87% and the residual activity [6] was 36%. For the same compound, the residual activity [7] was 95%, the residual activity [8] was 8% and the residual activity [9] was 2%. For the same compound, the residual activity [10] was 79%, the residual activity [11] was 81% and the residual activity [12] was 4%. For the same compound, the residual activity [13] was 45%, the residual activity [14] was 28% and the residual activity [15] was 91%. For the same compound, the residual activity [16] was 39%.
With `CCNCc1ccc(N/C(=C2\C(=O)Nc3cc(C(=O)N(C)CC)ccc32)c2ccccc2)cc1` the residual activity [1] was 91%, the residual activity [2] was 106% and the residual activity [3] was 78%. For the same compound, the residual activity [4] was 89%, the residual activity [5] was 92% and the residual activity [6] was 83%. The residual activity [7] was 87%, the residual activity [8] was 85% and the residual activity [9] was 81%. It also gave a residual activity [10] of 80%, a residual activity [11] of 72% and a residual activity [12] of 50%. It also gave a residual activity [13] of 86%, a residual activity [14] of 85% and a residual activity [15] of 85%. For the same compound, the residual activity [16] was 87%.
`O=C1Nc2ccccc2/C1=C(/Nc1ccc(CN2CCCCC2)cc1)c1ccccc1` gave a residual activity [1] of 8%, a residual activity [2] of 20% and a residual activity [3] of 32%. For the same compound, the residual activity [4] was 12%, the residual activity [5] was 86% and the residual activity [6] was 8%. For the same compound, the residual activity [7] was 77%, the residual activity [8] was 6% and the residual activity [9] was 4%. The residual activity [10] was 54%, the residual activity [11] was 39% and the residual activity [12] was 0%. The residual activity [13] was 18%, the residual activity [14] was 29% and the residual activity [15] was 96%. For the same compound, the residual activity [16] was 38%.
`CCNC(=O)c1ccc2c(c1)NC(=O)/C2=C(\Nc1ccc(N(CCN(C)C)S(C)(=O)=O)cc1)c1ccccc1` gave a residual activity [1] of 105%, a residual activity [2] of 107% and a residual activity [3] of 83%. The residual activity [4] was 100%, the residual activity [5] was 118% and the residual activity [6] was 105%. The residual activity [7] was 104%, the residual activity [8] was 51% and the residual activity [9] was 74%. For the same compound, the residual activity [10] was 88%, the residual activity [11] was 70% and the residual activity [12] was 80%. For the same compound, the residual activity [13] was 96%, the residual activity [14] was 100% and the residual activity [15] was 110%. The residual activity [16] was 100%.
